Results reported in ChEMBL document CHEMBL1201862, “PubChem BioAssay data set” (2004).
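The compound was tested at five concentrations on cells cultured in 96-well plates, with a 48-hour exposure period. Here, GI50 denotes the concentration required for 50% inhibition of growth.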 Calls of active or inactive are those of the source. Cut-off read from the data, not from the text of the source: active = GI50 up to about 1.1 µM and inactive = higher.

Columns and labels:
Test in all cases: NCI-60 cell line screen, 48 h
[1] = tested on: SNB-19
[2] = tested on: HL-60
[3] = tested on: EKVX
[4] = tested on: SF-295
[5] = tested on: NCI-H23
[6] = tested on: CCRF-CEM
[7] = tested on: RXF 393
[8] = tested on: Malme-3M
[9] = tested on: SK-MEL-28
[10] = tested on: UACC-257
[11] = tested on: UACC-62
[12] = tested on: NCI-H522
[13] = tested on: NCI-H460
[14] = tested on: HCT-15
[15] = tested on: SN12C
[16] = tested on: HCT-116
[17] = tested on: KM12
[18] = tested on: U-251
[19] = tested on: OVCAR-8
[20] = tested on: OVCAR-3

Row | Structure (SMILES) | GI50 [1] | GI50 [2] | GI50 [3] | GI50 [4] | GI50 [5] | GI50 [6] | GI50 [7] | GI50 [8] | GI50 [9] | GI50 [10] | GI50 [11] | GI50 [12] | GI50 [13] | GI50 [14] [µM] | GI50 [15] | GI50 [16] | GI50 [17] | GI50 [18] | GI50 [19] | GI50 [20]
1 | CCN(CC)c1cccc2c1/C(=N/O)CCCC2 | > 100 µM (inactive) | > 100 µM (inactive) | > 100 µM (inactive) | 83.8 µM (inactive) | > 100 µM (inactive) | > 100 µM (inactive) | 90.2 µM (inactive) | > 100 µM (inactive) | > 100 µM (inactive) | 65 µM (inactive) | > 100 µM (inactive) | > 100 µM (inactive) | 74.5 µM (inactive) | > 100 | > 100 µM (inactive) | 92.3 µM (inactive) | > 100 µM (inactive) | > 100 µM (inactive) | > 100 µM (inactive) | –
2 | O=C1c2ccccc2N(O)C1(c1ccccc1)C1CCCC=C1N1CCOCC1 (configuration not stated) | 57.9 µM (inactive) | 50.4 µM (inactive) | 34.7 µM (inactive) | > 100 µM (inactive) | > 100 µM (inactive) | 40.7 µM (inactive) | 22.4 µM (inactive) | – | 83.8 µM (inactive) | 70.6 µM (inactive) | 35.8 µM (inactive) | 22.5 µM (inactive) | > 100 µM (inactive) | 91.2 | > 100 µM (inactive) | 28.5 µM (inactive) | – | 87.5 µM (inactive) | > 100 µM (inactive) | > 100 µM (inactive)
3 | C=CCCN1CCc2c([nH]c3ccccc23)C1C(=O)O (configuration not stated) | > 100 µM (inactive) | 93.1 µM (inactive) | > 100 µM (inactive) | > 100 µM (inactive) | 78 µM (inactive) | 96.2 µM (inactive) | > 100 µM (inactive) | > 100 µM (inactive) | > 100 µM (inactive) | > 100 µM (inactive) | > 100 µM (inactive) | > 100 µM (inactive) | > 100 µM (inactive) | – | > 100 µM (inactive) | > 100 µM (inactive) | > 100 µM (inactive) | > 100 µM (inactive) | – | > 100 µM (inactive)
4 | CC(=O)NNc1nc(C)c(C(=O)NNC(=O)C(=O)Nc2ccc([N+](=O)[O-])cc2C#N)s1 | > 100 µM (inactive) | > 100 µM (inactive) | 96.4 µM (inactive) | > 10 µM (inactive) | 96.4 µM (inactive) | 32.7 µM (inactive) | – | > 100 µM (inactive) | > 100 µM (inactive) | > 100 µM (inactive) | > 100 µM (inactive) | 76 µM (inactive) | > 100 µM (inactive) | > 100 | > 100 µM (inactive) | > 100 µM (inactive) | > 100 µM (inactive) | 52.7 µM (inactive) | > 100 µM (inactive) | 63.5 µM (inactive)
5 | CC(=O)OCc1c(C)c2ccccc2n1C(C)=O | > 100 µM (inactive) | 23.9 µM (inactive) | > 100 µM (inactive) | 56.9 µM (inactive) | 55 µM (inactive) | 18.1 µM (inactive) | 33 µM (inactive) | 25 µM (inactive) | > 100 µM (inactive) | 30.3 µM (inactive) | 36.3 µM (inactive) | 20 µM (inactive) | – | – | 35.7 µM (inactive) | 44.5 µM (inactive) | 40.5 µM (inactive) | 36.3 µM (inactive) | 49 µM (inactive) | 26.7 µM (inactive)
6 | Cn1cc(-c2csc(-c3cn(C)c4ccccc34)n2)c2ccccc21 | 42.7 µM (inactive) | > 100 µM (inactive) | – | 23.4 µM (inactive) | 84.5 µM (inactive) | > 100 µM (inactive) | 14.1 µM (inactive) | 19.1 µM (inactive) | 61.5 µM (inactive) | 48.6 µM (inactive) | 32.2 µM (inactive) | 76.7 µM (inactive) | 26.5 µM (inactive) | > 100 | 47.8 µM (inactive) | 43.5 µM (inactive) | 43.3 µM (inactive) | 32.4 µM (inactive) | 25.6 µM (inactive) | 23.5 µM (inactive)
7 | O=c1nc(NC(c2ccccc2)(c2ccccc2)c2ccccc2)ccn1CCCl | 15.1 µM (inactive) | 22.8 µM (inactive) | 26.9 µM (inactive) | 20.6 µM (inactive) | 23.2 µM (inactive) | – | 16.1 µM (inactive) | 14.6 µM (inactive) | 15 µM (inactive) | > 10 µM (inactive) | – | 22.8 µM (inactive) | 19.3 µM (inactive) | 35.4 | 17.9 µM (inactive) | 18.8 µM (inactive) | 17.1 µM (inactive) | 15.3 µM (inactive) | 16.2 µM (inactive) | 13.2 µM (inactive)
8 | CN(CCO)Cc1ncccc1O | > 100 µM (inactive) | 64.3 µM (inactive) | > 100 µM (inactive) | > 100 µM (inactive) | > 100 µM (inactive) | 68.5 µM (inactive) | > 100 µM (inactive) | > 100 µM (inactive) | > 100 µM (inactive) | > 100 µM (inactive) | > 100 µM (inactive) | > 100 µM (inactive) | > 100 µM (inactive) | > 100 | – | – | > 100 µM (inactive) | > 100 µM (inactive) | > 100 µM (inactive) | > 100 µM (inactive)
